These results are taken from patent US6329363A, “Cephalosporin antibiotics” (Eli Lilly and Company, priority 1998, dated 2001).

≈ marks a conversion by molar mass, not a printed value.

One test deals with S.aureus ATCC 29213. In words: MIC, in vitro activity vs. S.aureus ATCC 29213. In kind it is cell-based, Staphylococcus aureus. As to conditions: Incubated at 37° C. overnight. Set-up: unit not given beside the values. On the procedure: (§1) Table 2 summarizes the minimal inhibitory concentrations (MIC's) at which illustrative formula I compounds and cephalothin inhibit certain microorganisms associated with mastitis, such as Staphylococcus aureus 10092 (Newbould strain).
(§2) ^a Incubated at 37° C. overnight

The subject of a further test is S.aureus 174 C. In words: MIC, in vitro activity vs. S.aureus 174 C. To be noted: Incubated at 37° C. overnight. Also noted: unit not given beside the values. In kind it is cell-based, Staphylococcus aureus. On the procedure: as §1, §2
Test [1] concerns Staphylococcus aureus 10092 (Newbould strain). The experiment in a line: MIC, in vitro activity vs. S.aureus 10092. The format is cell-based. As to conditions: Incubated at 37° C. overnight. Set-up: unit not given beside the values. On the procedure: as §1, §2
In a further test the test system is S.aureus F1C. The experiment in a line: MIC, in vitro activity vs. S.aureus F1C. In kind it is cell-based, Staphylococcus aureus. Set-up: unit not given beside the values. To be noted: Incubated at 37° C. overnight. On the procedure: as §1, §2
Test [2] concerns Streptococcus uberis 150 L. In words: MIC, in vitro activity vs. Streptococcus uberis 150 L. The format is cell-based. Set-up: unit not given beside the values. To be noted: Incubated at 37° C. overnight. On the procedure:
as §1, §2

Test [3] relates to Streptococcus uberis 166 L. The experiment in a line: MIC, in vitro activity vs. Streptococcus uberis 166 L. The format is cell-based. Set-up: unit not given beside the values. To be noted: Incubated at 37° C. overnight. On the procedure:
as §1, §2

The next test concerns Streptococcus agalactiae. In words: MIC, in vitro activity vs. Streptococcus agalactiae. The format is cell-based. As to conditions: Incubated at 37° C. overnight. Also noted: unit not given here. On the procedure:
as §1, §2

Test [4] relates to Strepcococcus dysgalactiae. In words: MIC, in vitro activity vs. Streptococcus dysgalactiae. The format is cell-based. Also noted: unit not given here. To be noted: Incubated at 37° C. overnight. On the procedure:
as §1, §2

Test [5] relates to pasteurella multocida 108E (bovine). The experiment in a line: MIC against Gram-negative organisms: pasteurella multocida 108E (bovine). The format is cell-based. To be noted: Incubated at 37° C. overnight; unit assumed. On the procedure:
(§3) The formula I compounds are also active against certain Gram-negative species.
as §2

Test [6] relates to pasteurella multocida ATCC 12945. The experiment in a line: MIC against Gram-negative organisms: pasteurella multocida ATCC 12945. In kind it is cell-based. To be noted: Incubated at 37° C. overnight; unit assumed. On the procedure:
as §3, §2

Test [7] concerns pasteurella multocida 1051 (swine). In words: MIC against Gram-negative organisms: pasteurella multocida 1051 (swine). To be noted: Incubated at 37° C. overnight; unit assumed. In kind it is cell-based. On the procedure: as §3, §2
Test [8] relates to pasteurella multocida 10,102 (bovine). In words: MIC against Gram-negative organisms: pasteurella multocida 10,102 (bovine). In kind it is cell-based. To be noted: Incubated at 37° C. overnight; unit assumed. On the procedure:
as §3, §2

Test [9] concerns Pasteurella haemolytica 114F (bovine). In words: MIC against Gram-negative organisms: Pasteurella haemolytica 114F (bovine). The format is cell-based. To be noted: Incubated at 37° C. overnight; unit assumed. On the procedure:
as §3, §2

Test [10] relates to Pasteurella haemolytica 128K (bovine). The experiment in a line: MIC against Gram-negative organisms: Pasteurella haemolytica 128K (bovine). In kind it is cell-based. To be noted: Incubated at 37° C. overnight; unit assumed. On the procedure: as §3, §2
In test [11] the test system is Pasteurella haemolytica 129R (bovine). In words: MIC against Gram-negative organisms: Pasteurella haemolytica 129R (bovine). The format is cell-based. As to conditions: Incubated at 37° C. overnight; unit assumed. On the procedure: as §3, §2
The next test deals with Salmonella typhimurium. In words: MIC against Gram-negative organisms: Salmonella typhimurium. The format is cell-based. To be noted: Incubated at 37° C. overnight; unit assumed. On the procedure:
as §3, §2

For the next test, the system named is Escherichia coli. The experiment in a line: MIC against Gram-negative organisms: Escherichia coli. The format is cell-based. To be noted: Incubated at 37° C. overnight; unit assumed. On the procedure: as §3, §2
The test system of test [12] is Staphylococcus aureus 10092 (Newbould). The experiment in a line: Efficacy in induced Staphylococcus aureus mastitis model in lactating goats. As to conditions: 8 halves per compound, 2 consecutive milkings 12 hours apart, approximately 25 mg/5 mL dose in peanut oil, from 36 hours post-challenge. The format is in vivo. The text has this: Sixteen lactating goats were selected based on the absence of Staphylococcus aureus in pre-challenge milk cultures. Maintenance ration was provided to the animals throughout the study. The goats were milked twice each day using a portable goat milker.
Milk samples were collected during the morning milking. One day prior to challenge, milk culture samples were collected from each half of the test animals to determine if there was a pre-existing infection. Additionally, a sample was collected from each half for Somatic Cell Count (SCC) determination. A milk culture sample and a sample for SCC were collected from each half 24 hours post-challenge and on Days +4 to +6, +8, +11, +13, and +15.
Udder scoring was performed during each milking wing table:
General health observations and body temperature were recorded once a day following milking during the challenge and treatment periods.
Milk samples were submitted for analysis for SCC using an electronic somatic cell counting system.
Milk culture samples were assayed for bacterial culture by plating 1.0 mL and 0.1 mL of the milk sample directly onto duplicate blood agar plates. Additionally, dilutions 10^-1 of the milk sample were plated. Plates were incubated overnight at 37° C.
Staphylococcus aureus 10092 (Newbould) was used as the challenge strain. The challenge culture was grown in Tryptic Soy Broth (TSB) from a lyovial stock overnight (16 hours) at 37° C. TSB (100 mL) was inoculated with 1 mL of the overnight culture and incubated at 37° C. with shaking for 4 hours. The culture was centrifuged at 9000 rpm for 10 minutes at 10° C.; supernatant was removed and the pellet was resuspended in phosphate buffered saline (PBS). Optimum O.D. reading at 650 nm was approximately 0.035. A 10-fold dilution series was prepared with saline to determine the CFU/mL, plating 10^-5, 10^-6, and 10^-7 dilutions onto duplicate blood agar plates. The 10^-7 dilution (approximately 10 CFU/mL) was used for the challenge material, yielding a challenge of 50 CFU/half with a 5-mL infusion.
Sixteen goats were used for the trial. During a one day pre-challenge period, milk samples were collected and temperatures were taken during the morning milking. Milk/udder evaluations were documented during the morning and afternoon milkings.
Staphylococcus aureus 10092 was infused into both halves in each of the goats. The goats were challenged following the morning milking and milked in the afternoon on the day of challenge. The challenge inoculum volume was 5 mL/half containing approximately 50 CFU S. aureus.
For the 24 hr post-challenge period milk samples were collected during the morning milking, and milk/udder evaluations made during the morning and afternoon milking.
Treatment was started at 36 hours post-challenge. Milk samples were collected for culture and SCC 24 hours post-challenge, prior to the morning milking, and the treatment period started following the afternoon milking.
Eight halves (4 goats) each were treated for 2 consecutive milkings 12 hours apart, following milking. Each designated compound was formulated in peanut oil with […] of compound per 5 g of formulation to give approximately 25 mg/5 mL dose.
Following treatment, the goats were milked and observed for 15 days. Milk samples were collected on Days +4 to +6, +8, +11, +13, and +15 to determine if the infection had cleared.
Establishment of mastitis was determined by bacterial culturing, severity of udder scoring, somatic cell count results, and body temperature.
On Days +2 to +6, milk samples were collected for a calorimetric assay to determine whether the antibiotic was still present in the milk.

For the next test, the system named is Mastitis in Cows. The experiment in a line: Efficacy in mastitis in lactating cows. The format is in vivo. As to conditions: three trials, 450 mmoles/quarter/dose for two doses. On the procedure:
Compound 1 was administered to lactating cows in three trials using methods analogous to those used in the goat model described in Example 13. A total of 43 quarters were treated with Compound 1, and 36 quarters were treated with cephapirin (Cefa-Lak). Both compounds were administered at 450 mmoles/quarter/dose for two doses. Compound 1 effectively treated 27 out of 43 quarters for an overall cure rate of 63%, whereas cephapirin effectively treated 18 out of 36 quarters for an overall cure rate of only 50%.

For `Cc1nnc(SCC2=C(C(=O)O)N3C(=O)[C@@H](NC(=O)COc4c(F)c(F)c(F)c(F)c4F)[C@H]3SC2)s1` [Compound 1], the “MIC vs. S.aureus ATCC 29213” value with S.aureus ATCC 29213 is 0.25. Further, the “MIC vs. S.aureus 174 C” value in the test with S.aureus 174 C turned out to be 0.25. In addition, in [1], the “MIC vs. S.aureus 10092” value is reported as 0.25. Also, the “MIC vs. S.aureus F1C” value with S.aureus F1C is recorded as 0.5. Besides, the “MIC vs. Streptococcus uberis 150 L” value in test [2] was found to be 0.25. In addition, the “MIC vs. Streptococcus uberis 166 L” value in [3] is on record as 0.25. Besides, in the test on Streptococcus agalactiae, the “MIC vs. Streptococcus agalactiae” value was 0.25. The “MIC vs. Strepcococcus dysgalactiae” value in [4] was 0.125. Moreover, the MIC, pasteurella multocida 108E (bovine) in test [5] amounted to 0.25 µg/mL (≈ 0.44 µM). Also, the MIC, pasteurella multocida ATCC 12945 in test [6] was found to be 0.25 µg/mL (≈ 0.44 µM). The same compound displayed an MIC, pasteurella multocida 1051 (swine) in test [7] of 0.25 µg/mL (≈ 0.44 µM). In addition, the MIC, pasteurella multocida 10,102 (bovine) in test [8] came to 0.25 µg/mL (≈ 0.44 µM). For the same compound, the MIC, Pasteurella haemolytica 114F (bovine) in test [9] worked out at 8 µg/mL (≈ 14.1 µM). The same compound displayed an MIC, Pasteurella haemolytica 128K (bovine) in test [10] of 4 µg/mL (≈ 7.04 µM). This compound also registered an MIC, Pasteurella haemolytica 129R (bovine) in [11] of 4 µg/mL (≈ 7.04 µM). Further, the MIC, Salmonella typhimurium against Salmonella typhimurium was at most 128 µg/mL. Further, in the test with Escherichia coli, the MIC, Escherichia coli was at most 128 µg/mL. For the same compound, the “% Bacteriologic Cures” value in test [12] is listed as 71%. In the test with Mastitis in Cows, the overall cure rate was determined as 63% and the quarters effectively treated was 27 out of 43.
